{"source": "patent US12545944B2", "about": "“Method of detection” (priority 2017, dated 2026)", "key": {"[1]": {"conditions": "cited from earlier work"}, "[2]": {"test_system": "carbapenemase-producing E. coli strains", "experiment": "Colistin MIC by broth microdilution (BMD), CLSI/EUCAST", "type": "cell-based, Escherichia coli"}}}
{"compound": "COCCOC", "note": "[1,2-dimethoxy-ethane (glyme, DME), 1,2-dimethoxy-ethane]", "values": [{"measurement": "Solubility in water", "setting": "[1]", "value": "Miscible"}]}
{"compound": "CC(C)O", "note": "[2-propanol]", "values": [{"measurement": "Solubility in water", "setting": "[1]", "value": "Miscible"}]}
{"compound": "CN(C)P(N(C)C)N(C)C", "note": "[Hexamethyl-phosphorous triamide (HMPT), Hexamethylphosphorous triamide]", "values": [{"measurement": "Solubility in water", "setting": "[1]", "value": "Miscible"}]}
{"compound": "CN1CCCC1=O", "note": "[N-methyl-2-pyrrolidinone (NMP), N-methyl-2-pyrrolidinone]", "values": [{"measurement": "Solubility in water", "setting": "[1]", "value": 10, "unit": "g/100 g"}]}
{"compound": "Clc1ccccc1", "note": "[chlorobenzene]", "values": [{"measurement": "Solubility in water", "setting": "[1]", "value": 0.05, "unit": "g/100 g"}]}
{"compound": "C1CCCCC1", "note": "[cyclohexane]", "values": [{"measurement": "Solubility in water", "setting": "[1]", "value": "<0.1", "unit": "g/100 g"}]}
{"compound": "COCCOCCOC", "note": "[diethylene glycol dimethyl ether]", "values": [{"measurement": "Solubility in water", "setting": "[1]", "value": "Miscible"}]}
{"compound": "C[S+](C)[O-]", "note": "[dimethyl sulfoxide (DMSO), dimethyl sulfoxide]", "values": [{"measurement": "Solubility in water", "setting": "[1]", "value": 25.3, "unit": "g/100 g"}]}
{"compound": "CCO", "note": "[ethanol]", "values": [{"measurement": "Solubility in water", "setting": "[1]", "value": "Miscible"}]}
{"compound": "CCOC(C)=O", "note": "[ethyl acetate]", "values": [{"measurement": "Solubility in water", "setting": "[1]", "value": 8.7, "unit": "g/100 g"}]}
{"compound": "OCC(O)CO", "note": "[glycerin]", "values": [{"measurement": "Solubility in water", "setting": "[1]", "value": "Miscible"}]}
{"compound": "CCCCCC", "note": "[hexane]", "values": [{"measurement": "Solubility in water", "setting": "[1]", "value": 0.014, "unit": "g/100 g"}]}
{"compound": "Colistin (Polymyxin E)", "values": [{"measurement": "Colistin MIC", "setting": "[2]; KPC-2 producing E. coli, N=1, mcr-1/-2 PCR negative", "value": 0.25, "unit": "µg/mL"}, {"measurement": "Colistin MIC", "setting": "[2]; KPC-3 producing E. coli, N=1, mcr-1/-2 PCR negative", "value": 0.25, "unit": "µg/mL"}, {"measurement": "Colistin MIC", "setting": "[2]; NDM-1 producing E. coli, N=1, mcr-1/-2 PCR negative", "value": 0.5, "unit": "µg/mL"}, {"measurement": "Colistin MIC", "setting": "[2]; NDM-1 producing E. coli, N=1, mcr-1 PCR positive, PRR 1.73 ± 0.23", "value": 4, "unit": "µg/mL"}, {"measurement": "Colistin MIC", "setting": "[2]; NDM-1 producing E. coli, N=1, mcr-1 PCR positive, PRR 2.34 ± 0.12", "value": 4, "unit": "µg/mL"}, {"measurement": "Colistin MIC", "setting": "[2]; NDM-1 producing E. coli, N=3, mcr-1/-2 PCR negative", "value": 0.25, "unit": "µg/mL"}, {"measurement": "Colistin MIC", "setting": "[2]; NDM-5 producing E. coli, N=2, mcr-1/-2 PCR negative", "value": 0.25, "unit": "µg/mL"}, {"measurement": "Colistin MIC", "setting": "[2]; NDM-5 producing E. coli, N=3, mcr-1/-2 PCR negative", "value": 0.5, "unit": "µg/mL"}, {"measurement": "Colistin MIC", "setting": "[2]; OXA-48 producing E. coli, N=1, mcr-1/-2 PCR negative", "value": 1, "unit": "µg/mL"}, {"measurement": "Colistin MIC", "setting": "[2]; OXA-48 producing E. coli, N=1, mcr-1 PCR positive, PRR 1.29 ± 0.63", "value": 4, "unit": "µg/mL"}, {"measurement": "Colistin MIC", "setting": "[2]; OXA-48 producing E. coli, N=26, mcr-1/-2 PCR negative", "value": 0.5, "unit": "µg/mL"}, {"measurement": "Colistin MIC", "setting": "[2]; OXA-48 producing E. coli, N=27, mcr-1/-2 PCR negative", "value": 0.25, "unit": "µg/mL"}, {"measurement": "Colistin MIC", "setting": "[2]; OXA-181 + NDM-5 producing E. coli, N=1, mcr-1/-2 PCR negative", "value": 0.25, "unit": "µg/mL"}, {"measurement": "Colistin MIC", "setting": "[2]; OXA-181 producing E. coli, N=4, mcr-1/-2 PCR negative", "value": 0.25, "unit": "µg/mL"}, {"measurement": "Colistin MIC", "setting": "[2]; OXA-204 producing E. coli, N=1, mcr-1/-2 PCR negative", "value": 0.25, "unit": "µg/mL"}, {"measurement": "Colistin MIC", "setting": "[2]; OXA-244 producing E. coli, N=1 (first line), mcr-1/-2 PCR negative", "value": 0.25, "unit": "µg/mL"}, {"measurement": "Colistin MIC", "setting": "[2]; OXA-244 producing E. coli, N=1 (second line), mcr-1/-2 PCR negative", "value": 0.5, "unit": "µg/mL"}, {"measurement": "Colistin MIC", "setting": "[2]; VIM-1 producing E. coli, N=1, mcr-1/-2 PCR negative", "value": 0.5, "unit": "µg/mL"}, {"measurement": "Colistin MIC", "setting": "[2]; VIM-4 producing E. coli, N=1, mcr-1/-2 PCR negative", "value": 0.25, "unit": "µg/mL"}, {"measurement": "MICs of colistin", "setting": "[2]; two NDM-1 and one OXA-48 producer, resistant to colistin, positive for the mcr-1 gene", "value": 4, "unit": "mg/L"}]}
